Experimental data published in PMC9926234, “Iterative computational design and crystallographic screening identifies potent inhibitors targeting the Nsp3 macrodomain of SARS-CoV-2” (Proceedings of the National Academy of Sciences of the …, 2023).
“And” between values parts separate entries of the source, which are not always exact repeats. Equal entries are not always repeated. Where two headings read alike, the source gives them in different places.

Assays:
Assay type in all cases: binding
SARS-CoV-2 NSP3 Mac1 [1] = target: T1, SARS-CoV-2 NSP3 Mac1 (Severe acute respiratory syndrome coronavirus 2, UniProt P0DTD1); experiment: biochemical; conditions: for Ki: Ki estimation from HTRF-derived IC50, Cheng-Prusoff, peptide 400nM, Kd 2.68µM, read-out: Ki***; for IC50: read-out: IC50
SARS-CoV-2 NSP3 Mac1 [2] = target: T1, SARS-CoV-2 NSP3 Mac1; conditions: for Refined occupancy: ligand occupancy after refinement (phenix.refine)
SARS-CoV-2 NSP3 Mac1 [3] = target: T1, SARS-CoV-2 NSP3 Mac1; set-up: contains a conserved macrodomain enzyme (Mac1); conditions: for Spearman est (compound concentration vs apparent Tm): DSF dose responsiveness, 1 µM nsp3 mac1, adj p given
How it was run: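 ΔTma values are thermal shifts relative to a co-located DMSO-only control, read with 5 µM Fluorescent Yellow dye. Each compound was tested in triplicate over seven concentrations (two-fold steps, top 1,000 or 100 μM). Spearman correlation of concentration versus ΔTma tested whether the shift was dose-responsive.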

[4] = PanDDA 1-BDC value of the event, crystal soak, compound concentration 100 mM, per dataset
[5] = PanDDA event map, 1 minus background density correction, crystal soaking of Mac1
[6] = crystal soak, compound concentration 100 mM, per dataset
[7] = ligand modeled in the crystal structure, crystal soak, compound concentration 100 mM, per dataset
[8] = true hit = binding in crystallographic soaking or the HTRF-based binding assay
[9] = ligand modeled from this dataset, compound concentration 100 mM, Echo dispense volume 40 or 80 nl
[10] = HTRF ADPr-peptide displacement from SARS-CoV-2 Mac1
[11] = PanDDA 1-BDC of the event, compound stock 100 mM, Echo dispense volume 80 nl
[12] = crystal soak, compound stock 100 mM, Echo dispense volume 80 nl
[13] = ligand modeled in structure, compound stock 100 mM, Echo dispense volume 80 nl
[14] = PanDDA event map, 1-BDC of the hit dataset, crystal soak, compound concentration 100 mM

SMILES	Ki (SARS-CoV-2 NSP3 Mac1 [1]) [µM]	1-BDC (SARS-CoV-2 NSP3 Mac1 [2]; [4])	1-BDC (SARS-CoV-2 NSP3 Mac1 [2]; [5])	PanDDA hit? (SARS-CoV-2 NSP3 Mac1 [2]; [6])	Refined occupancy (SARS-CoV-2 NSP3 Mac1 [2]; crystal soaking of Mac1)	HIT* (SARS-CoV-2 NSP3 Mac1 [2]; [8])	Spearman est (compound concentration vs apparent Tm) (SARS-CoV-2 NSP3 Mac1 [3])	DSF max dTma (SARS-CoV-2 NSP3 Mac1 [3]; maximal thermal upshift)	Modeled? (SARS-CoV-2 NSP3 Mac1 [2]; [9])	IC50 (SARS-CoV-2 NSP3 Mac1 [1]; HTRF) [µM]	further results
O=C(NC1c2cccc(O)c2CC1C(=O)O)c1cnc2c(c1)CCCN2 (centres unmarked) [8539_0006]	146	0.1	0.1	TRUE	20	Y	−0.43	0 ˚C			Modeled? (SARS-CoV-2 NSP3 Mac1 [2]; [7]): TRUE
O=C(NC1c2cccc(O)c2CC1C(=O)O)c1cnc(NC2CCOCC2)cn1 (centres unmarked) [8539_0007]	5.6	0.2	0.19	TRUE	60	Y	0.24	3.42 ˚C	TRUE		
O=C(NC1c2cccc(O)c2CC1C(=O)O)c1ccc(NCC2CC2)nc1 (centres unmarked) [8539_0009]	14.9	0.18	0.24	TRUE	70	Y	0.34	2.03 ˚C	TRUE		
O=C1COc2cc(C(=O)NC3c4cccc(O)c4CC3C(=O)O)ccc2N1 (centres unmarked) [8539_0014]	24.3	0.29	0.29	TRUE	58	Y	0.59	1.83 ˚C	TRUE		
O=C(Nc1ccc(C(=O)NC2c3ccccc3CC2C(=O)O)cc1)NC1CC1 (centres unmarked) [8539_0029]	4.2	0.13	0.11	TRUE	22	Y	0.73	3.66 ˚C	TRUE		
O=C(Nc1ccc(C(=O)N[C@H]2c3ccccc3CC[C@H]2C(=O)O)cc1)NC1CC1 [8539_0030]	5.1	0.32	0.32	TRUE	64	Y	0.86	4.92 ˚C			Modeled? (SARS-CoV-2 NSP3 Mac1 [2]; [7]): TRUE
O=C(O)CC1CN(c2ncnc3[nH]ccc23)CC2(CCC2)O1 (centres unmarked) [F6831]	38.5					Y	0.94	2.21 ˚C		44.2	binding to Mac1 in crystal soaking, result in words (SARS-CoV-2 NSP3 Mac1 [2]; soaks at 10 to 20 mM): not confirmed by X-ray crystallography
O=C(O)C1CN(c2ncnc3[nH]c4cc(F)ccc4c23)CCC12CCC2 (centres unmarked) [LL123_0029]	13.8				22	Y				15.9	IC50 (SARS-CoV-2 NSP3 Mac1 [1]; [10]): 16 µM; 1-BDC (SARS-CoV-2 NSP3 Mac1 [2]; [11]): 0.11; 1-BDC (PanDDA) (SARS-CoV-2 NSP3 Mac1 [2]; [5]): 0.11; PanDDA hit? (SARS-CoV-2 NSP3 Mac1 [2]; [12]): TRUE; Modeled? (SARS-CoV-2 NSP3 Mac1 [2]; [13]): TRUE
CS(=O)(=O)NC(=O)C1(F)CN(c2ncnc3[nH]c4cc(F)ccc4c23)CC12CCC2 (centres unmarked) [LL123_0036]	14.8				36	Y					IC50 (SARS-CoV-2 NSP3 Mac1 [1]; [10]): 17.1 µM and 17 µM; 1-BDC (SARS-CoV-2 NSP3 Mac1 [2]; [11]): 0.18; 1-BDC (SARS-CoV-2 NSP3 Mac1 [2]; PanDDA event map 1-BDC, crystal soak, Compound_concentration 100 mM, PanDDA run dmso_34 or nohits_35 per dataset): 0.2; 1-BDC (PanDDA) (SARS-CoV-2 NSP3 Mac1 [2]; [5]): 0.18; PanDDA hit? (SARS-CoV-2 NSP3 Mac1 [2]; crystal soak, Compound_concentration 100 mM, Echo dispense 40 nl, PanDDA run dmso_34 or nohits_35 per dataset): TRUE; PanDDA hit? (SARS-CoV-2 NSP3 Mac1 [2]; [12]): TRUE; Modeled? (SARS-CoV-2 NSP3 Mac1 [2]; [13]): TRUE
O=C(CSc1nnn[nH]1)c1c[nH]c2ncc(Br)cc12 [R1104]	48.1		0.27		54	Y	0.54	1.16 ˚C		55.3	1-BDC (SARS-CoV-2 NSP3 Mac1 [2]; [14]): 0.3
Cc1c[nH]c2ncc(C(=O)N(C)c3nnn[nH]3)cc12 [R7335]	36.7				40	Y	0.73	1.16 ˚C		42.2	1-BDC (SARS-CoV-2 NSP3 Mac1 [2]; [14]): 0.26; 1-BDC (PanDDA) (SARS-CoV-2 NSP3 Mac1 [2]; [5]): 0.2; Modeled? (SARS-CoV-2 NSP3 Mac1 [2]; ligand modeled from this dataset, compound concentration 100 mM): TRUE
CCc1c[nH]c2ncnc(N3CCCC(S(C)(=O)=O)C3)c12 (centres unmarked) [Z1027]	110		0.17		34		0.96				IC50 (SARS-CoV-2 NSP3 Mac1 [1]; [10]): 126 µM; IC50 (SARS-CoV-2 NSP3 Mac1 [1]; HTRF, several values in a cell are separate determinations): 126 µM; 1-BDC (SARS-CoV-2 NSP3 Mac1 [2]; PanDDA 1-BDC (background density correction) of the event, crystal soak 100 mM, PanDDA run dmso_34): 0.17; PanDDA hit? (SARS-CoV-2 NSP3 Mac1 [2]; crystal soak, compound concentration 100 mM, PanDDA run dmso_34, series docking_lead-like_1): TRUE; Modeled? (SARS-CoV-2 NSP3 Mac1 [2]; ligand modeled in the crystal structure, crystal soak 100 mM, PanDDA run dmso_34): TRUE; HIT* (SARS-CoV-2 NSP3 Mac1 [2]; overall hit flag: binding in crystallographic soaking or the HTRF-based binding assay): Y; DSF max dTma (SARS-CoV-2 NSP3 Mac1 [3]; maximal thermal upshift vs DMSO control): 1.03 °C
O=C(O)CC1CN(c2ncnc3[nH]c4ccccc4c23)CC(C(F)(F)F)O1 (centres unmarked) [Z1229]	104					Y				119	
